Legend:
[1] = tested on: common ragweed; experiment: Test F preemergence test; format: in vivo, Ambrosia elation; details: scale 0 to 100
Summary of the method: (§1)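 Compound in a non-phytotoxic solvent blend with surfactant is applied preemergence to planted seeds or postemergence to sugarcane plants. Plants and controls stay in the greenhouse 14 to 21 days before visual comparison.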

[2] = tested on: large crabgrass; experiment: Test F preemergence test; format: in vivo, Digitaria sanguinalis; details: scale 0 to 100
Summary of the method: as §1

[3] = tested on: johnsongrass; experiment: Test F preemergence test; format: in vivo, Sorghum halepense; details: scale 0 to 100
Summary of the method: as §1

[4] = tested on: downy brome; experiment: Test C pre-/postemergence test; format: in vivo, Bromus tectorum; details: for Plant response rating, Bromegrass, Downy: scale 0 to 100, 0 no effect, 100 complete control
Summary of the method: (§2)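 Compounds in a non-phytotoxic solvent with surfactant applied preemergence to seeded pots and, at the same time, postemergence to plants 2–18 cm tall (1- to 4-leaf stage). Paddy tests: pots flooded to 3 cm, compound applied into the water, depth held throughout.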

[5] = tested on: itchgrass; experiment: Test F preemergence test; format: in vivo, Rottboellia cochinchinensis; details: scale 0 to 100
Summary of the method: as §1

[6] = tested on: green foxtail; experiment: Test F preemergence test; format: in vivo, Setaria viridis; details: scale 0 to 100
Summary of the method: as §1

[7] = tested on: Italian ryegrass; experiment: Test F preemergence test; format: in vivo, Lolium multiflorum; details: scale 0 to 100
Summary of the method: as §1

[8] = tested on: Russian thistle; experiment: Test C pre-/postemergence test; format: in vivo, Salsola kali; details: 31 g ai/ha, Preemergence; scale 0 to 100
Summary of the method: as §2

[9] = tested on: field bindweed; experiment: Test F preemergence test; format: in vivo, Convolvulus arvensis; details: scale 0 to 100
Summary of the method: as §1

[10] = tested on: catchweed bedstraw; experiment: Test C pre-/postemergence test; format: in vivo, Galium aparine
Summary of the method: as §2

[11] = tested on: crabgrass; experiment: Test A pre-/postemergence greenhouse test; format: in vivo, Digitaria sanguinalis; details: for Crabgrass, Large plant response rating: 0 to 100 scale
Summary of the method: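 Visual injury ratings, made relative to untreated controls roughly ten days after treatment, cover both preemergence and postemergence application. Compounds in a surfactant-containing non-phytotoxic solvent were sprayed onto the soil surface after sowing and, simultaneously, onto young plants at the one- to two-leaf stage.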

[12] = tested on: Surinam grass; experiment: Test F preemergence test; format: in vivo, Brachiaria decumbens; details: scale 0 to 100
Summary of the method: as §1

[13] = tested on: southern sandbur; experiment: Test F preemergence test; format: in vivo, Cenchrus echinatus; details: scale 0 to 100
Summary of the method: as §1

[14] = tested on: goosegrass; experiment: Test F preemergence test; format: in vivo, Eleusine indica; details: scale 0 to 100
Summary of the method: as §1

[15] = 31 g ai/ha, Preemergence, scale 0 to 100
[16] = 62 g ai/ha, preemergence, scale 0 (no effect) to 100 (complete control)
[17] = preemergence, 125 g ai/ha, scale 0 (no effect) to 100 (complete control)

Cn1nc(C(F)(F)F)c(C[S+]([O-])c2cccc[n+]2[O-])c1OC(F)F (stereo not drawn) [Compound 3]
20: Plant response rating, Crabgrass, Large ([2]; Preemergence, 16 g ai/ha) | Plant response rating, Sandbur ([13]; 8 g ai/ha, preemergence)
75: Plant response rating, Foxtail, Green ([6]; Preemergence, 31 g ai/ha)
90: Ragweed plant response rating ([1]; 62 g ai/ha, Preemergence) | Plant response rating, Johnsongrass ([3]; Preemergence, 31 g ai/ha) | Itchgrass plant response rating ([5]; 62 g ai/ha, Preemergence) | Crabgrass, Large plant response rating ([11]; Postemergence, 500 g ai/ha, 0 is no effect, 100 is complete control) | Crabgrass, Large plant response rating ([11]; Preemergence, 125 g ai/ha, 0 no effect, 100 complete control) | Plant response rating, Sandbur ([13]; Preemergence, 31 g ai/ha)
95: Johnsongrass plant response rating ([3]; 62 g ai/ha, Preemergence) | Foxtail, Green plant response rating ([6]; 62 g ai/ha, Preemergence) | Galium plant response rating [10, 17] | Surinam Grass plant response rating ([12]; 62 g ai/ha, Preemergence) | Sandbur plant response rating ([13]; 62 g ai/ha, Preemergence) | Plant response rating, Goosegrass ([14]; Preemergence, 31 g ai/ha)
60: Plant response rating, Ragweed ([1]; Preemergence, 16 g ai/ha) | Bromegrass, Downy plant response rating [4, 16]
35: Plant response rating, Itchgrass ([5]; Preemergence, 16 g ai/ha)
40: Plant response rating, Foxtail, Green ([6]; Preemergence, 16 g ai/ha) | Plant response rating, Goosegrass ([14]; Preemergence, 16 g ai/ha)
98: Bromegrass, Downy plant response rating [4, 17] | Goosegrass plant response rating ([14]; 62 g ai/ha, Preemergence)
70: Plant response rating, Crabgrass, Large ([2]; Preemergence, 31 g ai/ha) | Plant response rating, Itchgrass ([5]; Preemergence, 31 g ai/ha)
0: Plant response rating, Ragweed ([1]; 8 g ai/ha, preemergence) | Plant response rating, Crabgrass, Large ([2]; 8 g ai/ha, preemergence) | Plant response rating, Johnsongrass ([3]; 8 g ai/ha, preemergence) | Bromegrass, Downy plant response rating [4, 15] | Plant response rating (0 to 100), Bromegrass, Downy ([4]; Postemergence, 31 g ai/ha) | Plant response rating, Bromegrass, Downy ([4]; Postemergence, 62 g ai/ha) | Plant response rating, Bromegrass, Downy ([4]; Postemergence, 125 g ai/ha) | Plant response rating, Bromegrass, Downy ([4]; Postemergence, 250 g ai/ha) | Plant response rating, Itchgrass ([5]; 8 g ai/ha, preemergence) | Plant response rating, Foxtail, Green ([6]; 8 g ai/ha, preemergence) | Plant response rating, Ryegrass, Italian ([7]; 8 g ai/ha, preemergence) | Russian Thistle plant response rating [8] | Plant response rating, Field Bindweed ([9]; 8 g ai/ha, preemergence) | Plant response rating, Field Bindweed ([9]; Preemergence, 16 g ai/ha) | Galium plant response rating [10, 15] | Galium plant response rating [10, 16] | Plant response rating, Surinam Grass ([12]; 8 g ai/ha, preemergence) | Plant response rating, Surinam Grass ([12]; 16 g ai/ha, preemergence) | Plant response rating, Goosegrass ([14]; 8 g ai/ha, preemergence)
85: Plant response rating, Surinam Grass ([12]; Preemergence, 31 g ai/ha)
80: Plant response rating, Ragweed ([1]; Preemergence, 31 g ai/ha) | Ryegrass, Italian plant response rating ([7]; 62 g ai/ha, Preemergence) | Crabgrass, Large plant response rating ([11]; Postemergence, 125 g ai/ha, 0 is no effect, 100 is complete control)
65: Plant response rating, Johnsongrass ([3]; Preemergence, 16 g ai/ha) | Plant response rating, Ryegrass, Italian ([7]; Preemergence, 31 g ai/ha) | Plant response rating, Sandbur ([13]; 16 g ai/ha, preemergence)
100: Crabgrass, Large plant response rating ([2]; 62 g ai/ha, Preemergence) | Plant response rating (0 to 100), Bromegrass, Downy ([4]; Preemergence, 250 g ai/ha) | Plant response rating (0 to 100), Galium ([10]; Preemergence, 250 g ai/ha) | Plant response rating, Crabgrass, Large ([11]; Preemergence, 500 g ai/ha, 0 to 100 scale where 0 is no effect and 100 is complete control)
30: Plant response rating, Ryegrass, Italian ([7]; Preemergence, 16 g ai/ha)
25: Field Bindweed plant response rating ([9]; 62 g ai/ha, Preemergence) | Plant response rating, Field Bindweed ([9]; Preemergence, 31 g ai/ha)

— patent US20100298141A1, “SUBSTITUTED PYRIDINE N-OXIDE HERBICIDES” (E. I. DU PONT DE NEMOURS AND COMPANY, priority 2007, published 2010)
